Key:
[1] = biological target: T1, D4.4 type dopamine receptor (human recombinant, CHO cells) (Homo sapiens, UniProt P21917); experiment: Competitive binding to D4.4 dopamine receptor, [3H]-YM-09151-2 radioligand; details: [3H]-YM-09151-2 0.3 nM; for D4.4(h) receptor Competitive Binding, % at 100 nM: 100 nM compound; for D4.4(h) receptor Competitive Binding, % at 1 μM: 1 μM compound
T1 construct: expressed in transfected cells; host or cells: CHO cells
T1 sequence (P21917 1-419): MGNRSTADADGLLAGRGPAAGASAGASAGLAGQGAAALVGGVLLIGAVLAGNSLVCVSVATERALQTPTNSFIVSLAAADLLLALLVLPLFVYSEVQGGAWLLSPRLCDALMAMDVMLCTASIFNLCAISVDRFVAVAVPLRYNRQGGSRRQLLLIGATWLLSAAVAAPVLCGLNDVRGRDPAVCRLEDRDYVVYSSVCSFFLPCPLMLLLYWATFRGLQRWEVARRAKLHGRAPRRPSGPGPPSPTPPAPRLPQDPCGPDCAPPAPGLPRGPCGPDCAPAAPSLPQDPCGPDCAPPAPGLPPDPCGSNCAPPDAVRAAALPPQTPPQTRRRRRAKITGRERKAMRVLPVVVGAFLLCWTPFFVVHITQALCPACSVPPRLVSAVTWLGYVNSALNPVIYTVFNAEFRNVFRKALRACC
Experimental: Compounds were assayed for competitive binding to the D4.4 type dopamine receptors, which is expressed as human recombinant proteins in CHO cells, as described, for example, in Jarvis et al. (1973); Van Tol et al. (1991) and Van Tol et al. (1992).
Determination of binding to D4.4 receptor was performed using [^3H]-YM-09151-2 (70-87 Ci/mmol, 0.3 nM), as a radioligand, in with the presence of various concentrations of the tested compound. Reactions were carried out in 50 mM TRIS-HCl (pH 7.4) containing 5 mM MgCl2, 5 mM EDTA, 5 mM KCl and 1.5 mM CaCl2, for 60 minutes at 22° C. The reaction was terminated by rapid vacuum filtration onto glass fiber filters. Radioactivity trapped onto the filters was determined (counted) and compared to control values in order to accurately evaluate any interaction of the tested compound(s) with the cloned dopamine D4.4 binding site.

[2] = biological target: T2, 5-HT1A type serotonin receptor (human recombinant, HEK-293 cells) (Homo sapiens, UniProt P08908); experiment: Competitive binding to 5-HT1A receptor, [3H]-8-OH-DPAT radioligand; details: [3H]-8-OH-DPAT 0.5 nM; for 5HT1A receptor Binding % at 1 nM: 1 nM compound; for 5HT1A receptor Binding % at 10 nM: 10 nM compound; for 5HT1A receptor Binding % at 100 nM: 100 nM compound; for 5HT1A receptor Binding % at 1 μM: 1 μM compound; for 5HT1A receptor Binding % at 5 μM: 5 μM compound
T2 construct: expressed in transfected cells; host or cells: HEK-293 cells
T2 sequence (P08908 1-422): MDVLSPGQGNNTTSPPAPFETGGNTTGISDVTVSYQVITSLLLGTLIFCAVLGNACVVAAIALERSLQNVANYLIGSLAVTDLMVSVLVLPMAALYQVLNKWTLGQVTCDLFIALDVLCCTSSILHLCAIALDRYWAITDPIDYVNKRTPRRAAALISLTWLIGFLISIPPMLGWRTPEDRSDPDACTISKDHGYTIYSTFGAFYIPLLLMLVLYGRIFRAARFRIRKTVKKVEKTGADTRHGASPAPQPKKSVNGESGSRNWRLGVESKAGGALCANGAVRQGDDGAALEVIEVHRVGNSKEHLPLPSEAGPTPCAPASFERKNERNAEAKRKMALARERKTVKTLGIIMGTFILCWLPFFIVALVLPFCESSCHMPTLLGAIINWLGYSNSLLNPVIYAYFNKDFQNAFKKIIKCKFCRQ
Experimental: Compounds were assayed for competitive binding to the 5-HT1A type serotonin receptor. The receptor is expressed as human recombinant proteins in HEK-293 cells, as described, for example, in Hoyer et al. (1985) and Schoeffter and Hoyer (1989).
Determination of binding to 5-HT1A receptor was performed using [^3H]-8-OH-DPAT, a 5-HT1A receptor ligand (Hoyer et al., 1985), as a radioligand (221 Ci/mmol, 0.5 nM) in the presence of various concentrations of the tested compound. Reactions were carried out in 50 mM Tris-HCl (pH 7.4) containing 10 mM MgSO4, 0.5 mM EDTA, and 0.1% ascorbic acid for 60 minutes at 25° C. The reaction was terminated by rapid vacuum filtration onto glass fiber filters. Radioactivity trapped onto the filters was determined (counted) and compared to control values in order to accurately evaluate any interaction of the test compound(s) with the cloned 5-HT1A receptor binding site.

[3] = biological target: T3, Human recombinant serotonin 5-HT1A receptors expressed in CHO cells (Homo sapiens, UniProt P08908); experiment: [35S]GTPγS 5-HT1A activity assay; assay type: biochemical; details: 10 μM compound; [35S]GTPγS binding increase relative to serotonin
T3 construct: expressed in transfected cells; host or cells: CHO cells
T3 sequence (P08908 1-422): T2 sequence (P08908 1-422)
Experimental: Human recombinant serotonin 5-HT1A receptors expressed in CHO cells were used. The tested compound were incubated with cell membranes and [^35S]GTPγS for 30 minutes in modified HEPES buffer (pH=7.4). Test compound-induced increase of [^35S]GTPγS binding was quantified relative to serotonin-induced increase of [^35S]GTPγS. Compounds were tested at concentrations of 10, 1 and 0.1 μM.

Sprague Dawley rats = experiment: Penile erection test in rats; assay type: in vivo, rat; details: 0.3 µmol/kg, subcutaneous; for Percent of animals showing erection response: moderate to strong erection
Experimental: Penile erection was tested in Sprague Dawley rats. The experimental group included 50 adult male rats, with body weights in the range of 312-330 grams. The animals were housed for acclimatization in a cage, and water and food were supplied ad libitum.
Penile erection experiments were carried out in morning hours between 9 AM and 11 AM, in a dark room with a red light source. Control groups included 10 animals that received saline as a placebo, and 10 animals that received 0.3 μmol/kg body weight of apomorphine hydrochloride in 1 ml of saline, as a positive control. […]
Penile erection was tested in Sprague Dawley rats, according to the protocol described hereinabove.

[4] = tested on: Male ferrets (Mustela putorius furo); experiment: Ferret emesis model; assay type: in vivo, ferret (Mustela putorius furo); details: 0.3 μmol/kg subcutaneous, observed 90 minutes
Experimental: Male ferrets (Mustela putorius furo) were made to fast overnight before experiments. 18 animals (weighing 0.8-1.0 kg) were divided into the following three groups of six:
(1) test group—received the compound being tested, e dissolved in 1 ml saline at a dose of 0.3 μmol/kg body weight, administered subcutaneously;
(2) negative control—received saline; and
(3) positive control—received apomorphine.
Animals were placed individually in observation cages and received cat food 30 minutes before the experiment.
One ml of saline was administered subcutaneously. Apomorphine and the test compound were dissolved in 1 ml saline at a dose of 0.3 μmol/kg body weight. Induced emesis or nausea was determined by direct observation during 90 minutes following drug injection. Nausea was characterized by behavior such as licking, gagging, backing, head burying and intense abdominal grooming. Emesis was characterized by rhythmic abdominal contractions.

Compound	D4.4(h) receptor Competitive Binding, % at 100 nM [1] [%]	D4.4(h) receptor Competitive Binding, % at 1 μM [1] [%]	5HT1A receptor Binding % at 1 nM [2]	5HT1A receptor Binding % at 10 nM [2]	5HT1A receptor Binding % at 100 nM [2]	5HT1A receptor Binding % at 1 μM [2]	5HT1A receptor Binding % at 5 μM [2]	% activation of 5HT1A at 10 μM [3]	Number of animals showing moderate to strong erection (Sprague Dawley rats)	Time during which erection was shown (Sprague Dawley rats) [min]	Percent of animals showing erection response (Sprague Dawley rats) [%]	Number of ferrets showing signs of nausea and/or emesis [4]
O=c1[nH]c(CN2CCC(c3ccccc3)CC2)nc2sc3c(c12)CCCC3 [Compound B-93]	16.69	81.97	active	active	active	active	active	active				
CCOc1ccccc1N1CCN(Cc2nc3sc4c(c3c(=O)[nH]2)CCCC4)CC1 [Compound B-94]	19.14	89.02	0.9%	20.23%	44.56%	62.77%	97.67%	50%				
CN1CCc2cccc3c2[C@H]1Cc1ccc(O)c(O)c1-3 [apomorphine, reference compound]										15 to 25	70	4 of the 6 ferrets

The next lines start with results.

D4.4(h) receptor Competitive Binding, % at 100 nM [1] [%]	D4.4(h) receptor Competitive Binding, % at 1 μM [1] [%]	5HT1A receptor Binding % at 1 nM [2]	5HT1A receptor Binding % at 10 nM [2]	5HT1A receptor Binding % at 100 nM [2]	5HT1A receptor Binding % at 1 μM [2]	5HT1A receptor Binding % at 5 μM [2]	% activation of 5HT1A at 10 μM [3]	Compound	Number of animals showing moderate to strong erection (Sprague Dawley rats)	Time during which erection was shown (Sprague Dawley rats) [min]	Percent of animals showing erection response (Sprague Dawley rats) [%]	Number of ferrets showing signs of nausea and/or emesis [4]
32.26	86.68	active	active	active	active	active	active	O=c1[nH]c(CN2CCN(c3cccc(O)c3)CC2)nc2sc3c(c12)CCCC3 [Compound B-95]				
87.6	102.45	active	active	active	active	active	active	Oc1cccc(N2CCN(Cc3cc4c(cn3)[nH]c3ccccc34)CC2)c1 [Compound B-96]				
74.27	100.99	1.78%	37.48%	75.08%	99.45%	100.34%	48%	CCOc1ccccc1N1CCN(Cc2cc3c(cn2)[nH]c2ccccc23)CC1 [Compound B-97]				
97.43	102.4	active	active	active	active	active	active	COc1ccccc1N1CCN(Cc2cc3c(cn2)[nH]c2ccccc23)CC1 [Compound B-99]	26 of the 30 animals	45 to 70	87	none
